Values of other authors, collected in patent publication US6808938B2, “Method and apparatus for assaying a drug candidate to estimate a pharmacokinetic parameter associated therewith” (Biacore AB, priority 1999, dated 2004).

Conditions: stated to explain lack of correlation at 500 μM in FIG. 7

Solubility: < 500 µM
Compound: CN1C(C(=O)Nc2ccccn2)=C(O)c2ccccc2S1(=O)=O [Piroxicam]
